# According to PubChem BioAssay AID1963845 (Molecular Pharmacology Branch, DTP, NCI, 2024):
# Several values for one entry are separate records, joined by “and”; a condition that tells them apart may be missing. Equal values may be shown once.
# Test system: 429239-143-T-J1-PDC complex spheroid viability
# Experiment: Anticancer human tumor 429239-143-T-J1-PDC patient-derived small cell lung carcinoma cell line growth inhibition [POLQ]
# Conditions: for viability, T/C: stronger effect = lower value
# Experimental: Multicellular complex tumor spheroid response to Polymerase (POL) inhibitors (novobiocin, ART-558, RP6685) in combination with a variety of drugs and investigational agents in selected tumor cell lines
# The POL inhibitors (novobiocin, ART-558, and RP6685) were evaluated both individually and in combination with standard of care and investigational anticancer small molecules within a complex spheroid model of solid tumors. . Complex spheroids include a stromal component modeled by human endothelial cells (HUVEC) and fibroblasts modeled by human mesenchymal stem cells (MSCs). The concentration ranges selected for each drug and investigational agent were based upon clinically achievable concentrations if the clinical Cmax of the agent was known.
# Compounds. The drugs and investigational agents: novobiocin (NSC847541), ART-558 (NSC835418), RP-6685 (NSC848927), peposertib (NSC802822), ceralasertib (NSC780249), elimusertib (NSC800525), camonsertib (NSC841442), AZD-1390 (NSC803789), olaparib (NSC753686), talazoparib (NSC767125), rucaparib (NSC756644), sotorasib (NSC818433), MRTX-1133 (NSC836407), SN-38 (NSC673596), topotecan (NSC609699), epotoside (NSC141540), doxorubicin (NSC123127), gemcitabine (NSC613327), 5-fluorouracil (NSC19893), paclitaxel (NSC125973), vemurafenib (NSC761431), MSA-2 (NSC828583), SN-011 (NSC837082), adavosertib (NSC754352), prexasertib (NSC758257), carboplatin (NSC241240) and oxaliplatin (NSC266046), were obtained from the National Cancer Institute (NCI) Developmental Therapeutics Program Chemical Repository (21). The FDA-approved anticancer drug set is available from the Developmental Therapeutics Program at https://dtp.cancer.gov/organization/dscb/obtaining/. […] The stock solutions were prepared in dimethyl sulfoxide (DMSO, Sigma-Aldrich, St. Louis, MO, cat. D2650), except for the platinum compounds which were prepared in saline (Quality Biological, Gaithersburg, MD, cat. 114-055-101), at 800-fold the tested concentration and stored at -70 degrees C prior to their use. All drugs and investigational agents were tested over a range starting from a high concentration at or near the clinical Cmax and decreasing in half-log increments. If the clinical Cmax for an agent had not been determined, the highest concentration tested was 10 microM, except for SN-38, which was tested at a high concentration of 1 microM.
# Cell Culture. All cells were maintained in an incubator at 37 degrees C and 5% CO2 with 95% humidity. The PDC lines were cultured according to standard operating procedures established by the NCI PDMR (https://pdmr.cancer.gov). Table 3 of the manuscript, lists the cell lines along with the number of the three cell types plated to form the mct-spheroids and media for tumor cell growth. After thawing, all PDC lines, except 997537-175-T-J1-PDC and 415267-285-R-J2-PDC, were cultured in Matrigel-coated flasks prepared with a working solution of 1X Ham's F-12 nutrient mix, without supplementation (Thermo Fisher Scientific, cat. 11765054), 100 U/mL penicillin-streptomycin (Thermo Fisher Scientific, cat. 15140122), and 2.5% Matrigel (Corning Inc., Corning, NY, cat. 354248) for the first three passages. The two PDC lines 997537-175-T-J1-PDC and 415267-285-R-J2-PDC were cultured on uncoated flasks. The 857933-349-R-J2-PDC line was cultured in 6C/Colon 1B media containing advanced DMEM/F-12 (Thermo Fisher Scientific, cat. 12634028), 10 mM HEPES (Thermo Fisher Scientific, cat. 15630080), 1X GlutaMAX supplement (Thermo Fisher Scientific, cat. 35050061), 0.1 mg/mL primocin (InvivoGen, San Diego, CA, cat. ant-pm-2), 10% defined fetal bovine serum, heat inactivated (HyClone Laboratories Inc., Logan, UT, cat. SH30070.03HI), 50% L-WRN conditioned media (ATCC, cat. CRL-3276), 1.25 mM N-Acetyl-L-cysteine (Sigma-Aldrich, cat. A9165), 10 mM nicotinamide (Sigma-Aldrich, cat. N0636), 1X B-27 supplement (Thermo Fisher Scientific, cat. 17504044), 1X N-2 supplement (Thermo Fisher Scientific, cat. […]
# 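Also: luminescence signal used as surrogate measure of viable cells; spheroids exposed to compounds for seven days before readout.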
# 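For viability, T/C in this document: 100% = DMSO vehicle control viability as luminescence relative to vehicle.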
compound,measurement,setting,value
Nc1ccc(C#CCN(C(=O)Cc2ncc(C(F)(F)F)cc2C(F)(F)F)c2ccc(F)cc2)nn1,"viability, T/C",compound 0.0316 µM,100% [middle of 13 runs]
same,"viability, T/C",compound 0.1 µM,103% [middle of 13 runs]
same,"viability, T/C",compound 0.316 µM,99.6% [middle of 13 runs]
same,"viability, T/C",compound 1 µM,101% [middle of 13 runs]
same,"viability, T/C",compound 10 µM,107% [middle of 13 runs]
same,IC50,"compound alone, run of 01/19/2024",> 10 µM
CC[C@@]1(O)C(=O)OCc2c1cc1n(c2=O)Cc2cc3c(CN(C)C)c(O)ccc3nc2-1 + Cc1cccc(N(C)C(=O)C2C(O)CCN2c2nc(C)cc(C(F)(F)F)c2C#N)c1,IC50,"curve of first compound, second compound 0.0316 µM",0.0105 µM
same,IC50,"curve of first compound, second compound 0.1 µM",0.0155 µM
same,IC50,"curve of first compound, second compound 0.316 µM",0.0155 µM
same,IC50,"curve of first compound, second compound 1 µM",0.0153 µM
same,IC50,"curve of first compound, second compound 3.16 µM",0.0127 µM
same,IC50,"curve of first compound, second compound 10 µM",0.0128 µM
same,"viability, T/C","second compound 0.0316 µM, first compound 0.000316 µM",102%
same,"viability, T/C","second compound 0.0316 µM, first compound 0.001 µM",98.8%
same,"viability, T/C","second compound 0.0316 µM, first compound 0.00316 µM",94.6%
same,"viability, T/C","second compound 0.0316 µM, first compound 0.01 µM",51.7%
same,"viability, T/C","second compound 0.0316 µM, first compound 0.0316 µM",18.5%
same,"viability, T/C","second compound 0.0316 µM, first compound 0.1 µM",18.2%
same,"viability, T/C","second compound 0.1 µM, first compound 0.000316 µM",100%
same,"viability, T/C","second compound 0.1 µM, first compound 0.001 µM",106%
same,"viability, T/C","second compound 0.1 µM, first compound 0.00316 µM",96.3%
same,"viability, T/C","second compound 0.1 µM, first compound 0.01 µM",69.9%
same,"viability, T/C","second compound 0.1 µM, first compound 0.0316 µM",15.8%
same,"viability, T/C","second compound 0.1 µM, first compound 0.1 µM",18.5%
same,"viability, T/C","second compound 0.316 µM, first compound 0.000316 µM",102%
same,"viability, T/C","second compound 0.316 µM, first compound 0.001 µM",107%
same,"viability, T/C","second compound 0.316 µM, first compound 0.00316 µM",88.7%
same,"viability, T/C","second compound 0.316 µM, first compound 0.01 µM",70.3%
same,"viability, T/C","second compound 0.316 µM, first compound 0.0316 µM",14.9%
same,"viability, T/C","second compound 0.316 µM, first compound 0.1 µM",18.3%
same,"viability, T/C","second compound 1 µM, first compound 0.000316 µM",99.1%
same,"viability, T/C","second compound 1 µM, first compound 0.001 µM",105%
same,"viability, T/C","second compound 1 µM, first compound 0.00316 µM",103%
same,"viability, T/C","second compound 1 µM, first compound 0.01 µM",68.8%
same,"viability, T/C","second compound 1 µM, first compound 0.0316 µM",17.9%
same,"viability, T/C","second compound 1 µM, first compound 0.1 µM",16.9%
same,"viability, T/C","second compound 3.16 µM, first compound 0.000316 µM",106%
same,"viability, T/C","second compound 3.16 µM, first compound 0.001 µM",90.4%
same,"viability, T/C","second compound 3.16 µM, first compound 0.00316 µM",94.2%
same,"viability, T/C","second compound 3.16 µM, first compound 0.01 µM",58%
same,"viability, T/C","second compound 3.16 µM, first compound 0.0316 µM",19.3%
same,"viability, T/C","second compound 3.16 µM, first compound 0.1 µM",18.9%
same,"viability, T/C","second compound 10 µM, first compound 0.000316 µM",101%
same,"viability, T/C","second compound 10 µM, first compound 0.001 µM",96.2%
same,"viability, T/C","second compound 10 µM, first compound 0.00316 µM",94.3%
same,"viability, T/C","second compound 10 µM, first compound 0.01 µM",57.9%
same,"viability, T/C","second compound 10 µM, first compound 0.0316 µM",20.4%
same,"viability, T/C","second compound 10 µM, first compound 0.1 µM",19.6%
CCc1cc2c(N3CCc4c(cc(Cn5ccnc5)cc4-c4cn(C)nc4C(F)(F)F)C3=O)cc(C)nc2c(OC)n1,"viability, T/C",compound 0.0316 µM,97.3% and 95.1% and 89.2%
same,"viability, T/C",compound 0.1 µM,77.4% and 91.2% and 89.8%
same,"viability, T/C",compound 0.316 µM,63.9% and 85.3% and 90%
same,"viability, T/C",compound 1 µM,48% and 81.4% and 78.2%
same,"viability, T/C",compound 3.16 µM,42.7% and 76.8% and 69.8%
same,"viability, T/C",compound 10 µM,38.6% and 45.6% and 43.8%
same,IC50,curve of compound,0.977 µM and 8.65 µM and 7.62 µM
C=CC(=O)N1CCN(c2nc(=O)n(-c3c(C)ccnc3C(C)C)c3nc(-c4c(O)cccc4F)c(F)cc23)C(C)C1 (configuration not stated),"viability, T/C",compound 0.0316 µM,96.4% and 97.7% and 104%
same,"viability, T/C",compound 0.1 µM,100% and 103% and 90.4%
same,"viability, T/C",compound 0.316 µM,98.7% and 103% and 101%
same,"viability, T/C",compound 1 µM,105% and 101% and 102%
same,"viability, T/C",compound 3.16 µM,114% and 103% and 113%
same,"viability, T/C",compound 10 µM,112% and 102% and 108%
same,IC50,curve of compound,> 10 µM
